Converted amounts (≈) assume the structure as drawn.
What was measured:
[1] = tested on: Trichophyton mentagrophytes; test: Minimum inhibitory concentration on Sabouraud's agar medium (Yamano et al. method); format: cell-based; details: 168 h, agar plate, 27°C for 7 days
Experimental: (§1) Sabouraud's agar medium was used as a culture medium. (A liquid culture medium was prepared from the same ingredients except for agar).
(§2) This culture medium was prepared by dissolving the above ingredients under heat, and the medium thus prepared was sterilized under the conditions of 1.05 bar (15 Ibs.lin^2) for 15 minutes.
(§3) The microorganisms to be tested were fungi of the species Trichophyton mentagrophytes (A), Trichophyton asteroides (B) and Candida a/bicans (C). Each of these microorganisms was cultivated on the corresponding slant medium at 27°C for 7 days. A loopful of each of the microorganisms (A), (B) and (C) was triturated in a mortar, charged into a test tube containing 10 ml of physiological saline solution, and suspended therein with a thermomixer. Each of the suspensions thus prepared was used in the test.
(§4) 9 ml of the culture medium and 1 ml of a dilute sample were thoroughly admixed with each other in a Petri dish to prepare an agar plate, which was then streaked with the suspension containing each of the microorganisms to be tested by using a sterile platinum wire loop. The microorganisms (A), (B) and (C) thus inoculated on the agar plates were cultivated at 27°C for 7 days, and thereafter the MIC thereof was determined.

[2] = tested on: Trichophyton asteroides; test: as above; format: cell-based; details: 168 h, agar plate, 27°C for 7 days
Experimental: as §1, §2, §3, §4

[3] = tested on: Candida albicans; test: as above; format: cell-based; details: 168 h, agar plate, 27°C for 7 days
Experimental: as §1, §2, §3, §4

[4] = tested on: P388 leukemia; test: Antitumor activity against intraperitoneally transplanted P388 leukemia in mice; format: in vivo; details: given 1 day and 5 days after transplantation of P388 leukemia 1 x 10^6 cells/mouse i.p., survival days of saline control group = 100
Experimental: For example, into CDF, mice were intraperitoneally transplanted P388 leukemia 1 x 10^6 cells/mouse as a suspension, and 2-bromo-6,7-dichloro-1-tetralone which is typical of the compounds of the present invention was administered to the mice 1 day and 5 days respectively after the transplantation. The effect of the test compound was evaluated in terms of the increase of life span (%) as calculated by determining the survival days of the control group consisting of mice administered with physiological saline solution as 100.

[5] = Toxicity (LD50) to mice; details: mouse, in vivo

MIC [1] [µg/mL] | MIC [2] [µg/mL] | MIC [3] [µg/mL] | Structure (SMILES) | Survival time relative to saline control (T/C, control = 100) ([4]; Dose 10.0 mg/kg/day) [%] | Survival time relative to saline control (T/C, control = 100) ([4]; Dose 50.0 mg/kg/day) [%] | LD50 ([5]; Oral) [mg/kg] | LD50 ([5]; ip, Intraperitoneal) [mg/kg] | LD50 ([5]; sc, Subcutaneous) [mg/kg]
1.56 (≈ 5.31 µM) | 1.56 (≈ 5.31 µM) | 1.56 (≈ 5.31 µM) | O=C1c2cc(Cl)cc(Cl)c2CCC1Br (centres unmarked) [2-bromo-5,7-dichloro-1-tetralone] |  |  |  |  | 
3.13 (≈ 12.9 µM) | 3.13 (≈ 12.9 µM) | 6.25 (≈ 25.7 µM) | O=C1c2cc(F)ccc2CCC1Br (centres unmarked) [2-bromo-7-fluoro-1-tetralone] |  |  |  |  | 
6.25 (≈ 17.7 µM) | 6.25 (≈ 17.7 µM) | > 200 | COC1=CC(=O)C[C@@H](C)[C@]12Oc1c(Cl)c(OC)cc(OC)c1C2=O [griseofulvin, reference compound] |  |  |  |  | 

Structure (SMILES) | MIC [1] [µg/mL] | MIC [2] [µg/mL] | MIC [3] [µg/mL] | Survival time relative to saline control (T/C, control = 100) ([4]; Dose 10.0 mg/kg/day) [%] | Survival time relative to saline control (T/C, control = 100) ([4]; Dose 50.0 mg/kg/day) [%] | LD50 ([5]; Oral) [mg/kg] | LD50 ([5]; ip, Intraperitoneal) [mg/kg] | LD50 ([5]; sc, Subcutaneous) [mg/kg]
O=C1c2cc(Cl)c(Cl)cc2CCC1Br (centres unmarked) [2-bromo-6,7-dichloro-1-tetralone] | 0.78 (≈ 2.65 µM) | 0.78 to 1.56 (≈ 2.65 to 5.31 µM) | 1.56 (≈ 5.31 µM) | 129 | 140 | > 1500 | 820 | > 1500

Source: patent publication EP0125695B1, “2-Bromo-1-tetralone derivatives” (KIRIN BEER KABUSHIKI KAISHA, priority 1983, dated 1984)
